Experimental data from PMC3466213, “Discovery of Novel Orally Active Anti-Inflammatory N-Phenylpyrazolyl-N-Glycinyl-Hydrazone Derivatives That Inhibit TNF-α Production” (PLoS ONE, 2012).
pIC50: −log10 of the molar value. Entries after “also recorded” stand apart in the source; their conditions may differ.

Legend:
p38α MAPK = p38α MAPK (Homo sapiens, UniProt Q16539); test: In vitro p38α MAPK activity inhibition (nonradioactive immunosorbent assay, ref 23); format: biochemical
Description: Because the novel N-acylhydrazone derivatives 4a–g were designed based on the p38α MAPK inhibitor BIRB-796 (3), they were all evaluated for their in vitro capacity to inhibit p38α MAPK activity at a concentration of 10 µM.
*This assay was performed as described in reference 23.

[1] = Aqueous solubility in phosphate buffer (HPLC-UV); format: physicochemical
Description: (§1) The organic fraction was analyzed with the Shimadzu Prominence HPLC system (Shimadzu, Tokio, Japan) consisting of a vacuum degasser (DGU-20A5), a binary pump (LC-20AD), a autosampler (SIL-20A), UV/VIS Photodiode Array Detector (SPD-M20A) and fitted with a guard column (CLC G-ODS) and a Shimadzu (CLC-ODS, M) column (250 mm×4.6 mm i.d.) running at room temperature. Isocratic elution was performed with acetonitrile-water (40∶60 v/v), at a flow rate set at 1 mL/min. The mobile phase pH was adjusted to 8.0 with NH4OH solution. The detection was carried out at 285 nm and 330 nm wavelength for compound 4f and 4a, respectively.

[2] = Rat liver microsomal stability; format: in vitro ADME; details: 50 µM, 37 °C, 1 mg/mL protein
Description: The incubation was conducted at 37°C for 60 min. The experiments contains MgCl2 (1.3 mM), NADP+ (0.4 mM), glucose-6-phosphate (3.5 mM), 0.5 U/mL glucose-6-phosphate dehydrogenase in a phosphate buffer (0.1 M, pH 7.4) containing EDTA (1.5 mM) and the test compounds were added at final concentration of 50 µM with 0.25 mL of final volume. After the pre-warming of the mixture at 37 °C, the microsomal proteins were added to give a final protein concentration of 1 mg/mL. At the end of the incubation time the reaction was stopped by the addition of 375 µL of MeOH and 375 µL of CH3CN. The experiments were performed in duplicate. The samples were centrifuged and filtered for HPLC-UV analysis.
as §1

TNF-α production = test: LPS-induced TNF-α production in culture of mice peritoneal macrophage (ELISA); format: cell-based; details: for pIC50: mouse peritoneal macrophages, at least five concentrations, range tested in parentheses, read-out: TNF-α Inhibition IC50; for inhibition at 10 µM: read-out: TNF-α Inhibition, % inhibition at 10 µM, mouse peritoneal macrophages, 10 µM, vs vehicle (DMSO), n = 3
Description: BALBc mice were stimulated with thyoglicollate 3% (1 mL/mice; i.p.) and 3 days later the peritoneal cavity were washed with RPMI 1640 and the peritoneal macrophages were plated onto 96-wells plate (30.000 cells/well) for 1 hour at 37°C in an humidified 5% CO2 atmophere. Then, macrophages were incubated with the vehicle or compounds and 1 hour later stimulated with LPS (100 ng/mL) for 24 hour when the supernatants were collected to evaluate TNF-α production by ELISA kit (BD Bioscience).

[3] = Cell viability by MTT assay; format: cell-based; details: mouse, murine peritoneal macrophages, vs vehicle (DMSO)
Description: The peritoneal macrophage were obtained and plated as described above. The cells were incubated with the vehicle or compounds for 20 hours when was added 20 µl of MTT (3-(4,5-dimethylthiazol-2-yl)-2,5-diphenyltetrazolium bromide) solution (5 mg/mL), followed by 4 hour of incubation. Then, the culture mediums were collected and the precipitates were solubilized in 200 µl of DMSO. The optical density was measured at 490 nm.

Rat plasma stability = format: in vitro ADME; details: 50 µM; for % Recovered amount after 60 min, rat plasma: 37 °C
Description: The rat plasma was obtained from blood by centrifugation and diluted in phosphate buffer (pH 7.4). The test compounds were added at final concentration of 50 µM with 0.25 mL of final volume and incubated at 37°C for 60 min under agitation. At the end of the incubation time the reaction was stopped by the addition of 375 µL of MeOH and 375 µL of CH3CN. The experiments were performed in duplicate. The samples were centrifuged and filtered for HPLC-UV analysis.
as §1

[4] = tested on: TNF-α level in carrageenan-injected paws; test: TNF-α level in carrageenan-injected paws (ELISA); format: in vivo; details: rat paw, 4 h after carrageenan, 100 µmol/kg p.o.
Description: (§2) Wistar rats of both sexes (150–200g) were used. The compounds were administered orally (100 µmol.5mL-1.kg-1) as a suspension in 5% arabic gum in saline (vehicle). Control animals received an equal volume of vehicle. One hour later, the animals were injected with either 0.1 ml of 1% carrageenan solution in saline or sterile saline (NaCl 0.9%), into the subplantar surface of one of the hind paws. The thermal hypernociception was determined using the modified hot-plate test. Rats are placed individually on a hot plate with the temperature adjusted to 51°C. The latency of the withdrawal response of the left hind paw is determined at 0, 30, 60, 120, 180, and 240 min post-challenge. The time of maximum permanence permitted on the hot surface is 20 s. Hypernociception to heat is defined as a decrease in withdrawal latency and calculated as follows: Δ paw withdrawal latency (s) = (left paw withdrawal latency at time 0) – (left paw withdrawal latency at the others times).
The paw was homogenized 4 h after intraplantar injection of carrageenan, and the level of TNF-α in the supernatant was determined by ELISA.

[5] = tested on: carrageenan-induced thermal hypernociception; test: Carrageenan-induced thermal hypernociception (modified hot-plate test); format: in vivo, rat; details: rats, 100 µmol/kg p.o.
Description: as §2

Chain of p38α MAPK (Q16539 whole entry): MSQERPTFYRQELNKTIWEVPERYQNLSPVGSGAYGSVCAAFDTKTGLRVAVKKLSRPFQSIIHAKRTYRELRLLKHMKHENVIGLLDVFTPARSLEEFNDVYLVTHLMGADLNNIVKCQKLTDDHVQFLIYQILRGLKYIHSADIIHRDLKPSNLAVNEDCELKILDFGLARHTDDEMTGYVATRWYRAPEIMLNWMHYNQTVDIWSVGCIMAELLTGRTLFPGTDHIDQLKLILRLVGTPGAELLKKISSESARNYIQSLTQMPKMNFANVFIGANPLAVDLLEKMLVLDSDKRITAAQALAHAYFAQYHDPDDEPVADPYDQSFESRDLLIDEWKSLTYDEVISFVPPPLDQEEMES

inhibition at 10 µM (p38α MAPK) [%]	Improvement in aqueous solubility at pH 6.4 (versus pH 7.4) ([1]; pH 6.4 compared with pH 7.4)	Improvement in solubility of 4a compared with 4f at pH 6.4 ([1]; phosphate buffer pH 6.4, 37 °C, 24 h)	Improvement in solubility of 4a compared with 4f at pH 7.4 ([1]; phosphate buffer pH 7.4, 37 °C, 24 h)	% Recovered amount after 60 min, rat liver microsomes [2] [%]	melting point [°C]	pIC50 (TNF-α production)	% Recovered amount after 60 min, rat plasma (Rat plasma stability) [%]	Resistance to plasma degradation relative to 4f (Rat plasma stability; rat plasma, 60 min)	SMILES	inhibition at 10 µM (TNF-α production) [%]	viability at 20 h, 3 µM [3] [%]	viability at 20 h, 10 µM [3] [%]	Suppression of the elevation of tissue TNF-α level [4] [%]	Anti-hypernociceptive effect (in words) [5]
-5.35	ca. three	ca. 12 times	ca. 5 times	90.1	180	5.44	40.7	about four	CC(C)(C)c1cc(NCC(=O)N/N=C/c2ccc(OCCN3CCOCC3)c3ccccc23)n(-c2ccccc2)n1 [Compound 4a, (E)-2-(3-tert-butyl-1-phenyl-1H-pyrazol-5-ylamino)-N’-((4-(2-morpholinoethoxy)naphthalen-1-yl)methylene)acetohydrazide]	96.9	100	61.5	57.3	comparable to SB-203580; also recorded: completely inhibit the hypernociceptive response
~30	–	–	–	–	270	5.37	–	–	CC(C)(C)c1cc(NCC(=O)N/N=C/c2ccc(O)c3ccccc23)n(-c2ccccc2)n1 [Compound 4b, (E)-2-(3-tert-butyl-1-phenyl-1H-pyrazol-5-ylamino)-N’-((4-hydroxynaphthalen-1-yl)methylene)acetohydrazide]	75.4	100	100	–	–
19.7	–	–	–	–	140	5.26	–	–	CC(C)(C)c1cc(NCC(=O)N/N=C/c2cccc3ccccc23)n(-c2ccccc2)n1 [Compound 4c, (E)-2-(3-tert-butyl-1-phenyl-1H-pyrazol-5-ylamino)-N’-(naphthalen-1-ylmethylene)acetohydrazide]	61.2	100	90.4	–	–
16.4	–	–	–	–	158	–	–	–	CC(C)(C)c1cc(NCC(=O)N/N=C/c2ccc(OCCN3CCOCC3)cc2)n(-c2ccccc2)n1 [Compound 4d, (E)-2-(3-tert-butyl-1-phenyl-1H-pyrazol-5-ylamino)-N’-(4-(2-morpholinoethoxy)benzylidene)acetohydrazide]	52.5	100	100	–	–
~30	–	–	–	–	–	–	–	–	CC(C)(C)c1cc(NCC(=O)N/N=C/c2ccc(O)cc2)n(-c2ccccc2)n1 [Compound 4e, (E)-2-(3-tert-butyl-1-phenyl-1H-pyrazol-5-ylamino)-N’-(4-hydroxybenzylidene)acetohydrazide]	8.1	100	97.8	–	–
15.3	–	–	–	86.7	–	5.80	13.3	–	CC(C)(C)c1cc(NCC(=O)N/N=C/c2ccc(Cl)cc2)n(-c2ccccc2)n1 [Compound 4f, (E)-2-(3-tert-butyl-1-phenyl-1H-pyrazol-5-ylamino)-N’-(4-chlorobenzylidene)acetohydrazide]	93.2	100	46.6	55.8	comparable to SB-203580; also recorded: partially inhibit this response
19.5	–	–	–	–	–	–	–	–	CC(C)(C)c1cc(NCC(=O)N/N=C/c2ccccc2)n(-c2ccccc2)n1 [Compound 4g, (E)-N’-benzylidene-2-(3-tert-butyl-1-phenyl-1H-pyrazol-5-ylamino)acetohydrazide]	50.4	100	99.8	–	–

Further lines, the molecule ahead of its results:

SMILES	inhibition at 10 µM (p38α MAPK) [%]	Improvement in aqueous solubility at pH 6.4 (versus pH 7.4) ([1]; pH 6.4 compared with pH 7.4)	Improvement in solubility of 4a compared with 4f at pH 6.4 ([1]; phosphate buffer pH 6.4, 37 °C, 24 h)	Improvement in solubility of 4a compared with 4f at pH 7.4 ([1]; phosphate buffer pH 7.4, 37 °C, 24 h)	% Recovered amount after 60 min, rat liver microsomes [2] [%]	melting point [°C]	pIC50 (TNF-α production)	% Recovered amount after 60 min, rat plasma (Rat plasma stability) [%]	Resistance to plasma degradation relative to 4f (Rat plasma stability; rat plasma, 60 min)	inhibition at 10 µM (TNF-α production) [%]	viability at 20 h, 3 µM [3] [%]	viability at 20 h, 10 µM [3] [%]	Suppression of the elevation of tissue TNF-α level [4] [%]	Anti-hypernociceptive effect (in words) [5]
CC(C)=NNC(=O)CNc1cc(C(C)(C)C)nn1-c1ccccc1 [Compound 9, 2-(3-tert-butyl-1-phenyl-1H-pyrazol-5-ylamino)-N’-(propan-2-ylidene)acetohydrazide]	–	–	–	–	–	181 to 183	–	–	–	–	–	–	–	–
CN(CC(=O)N/N=C/c1ccccc1)c1cc(C(C)(C)C)nn1-c1ccccc1 [Compound 15, (E)-N’-benzylidene-2-((3-tert-butyl-1-phenyl-1H-pyrazol-5-yl)(methyl)amino)acetohydrazide]	–	–	–	–	–	156 to 158	–	–	–	–	–	–	–	–
C[S+]([O-])c1ccc(-c2nc(-c3ccncc3)c(-c3ccc(F)cc3)[nH]2)cc1 (centres unmarked) [SB-203580 (1), SB-203580, reference compound]	–	–	–	–	–	–	–	–	–	90	100	44.3	–	–
